Laboratory results taken from a melting point compilation (Tetko et al.; mined from patent text by program, amines drawn as free bases though some values may be those of a salt).

| melting point [°C] | Structure (SMILES) |
| --- | --- |
| 66 to 68 | Cc1ccc([N+](=O)[O-])c(C=O)c1C |
| 40 | CSc1ccc(N=C=O)cc1C(F)(F)F |
| 88 to 102 | N#CC(C=O)c1ccc(NS(=O)(=O)c2cccc(Cl)c2Cl)cc1 (stereo not drawn) |
| 127 to 128 | COc1cc2c(cc1[N+](=O)[O-])CCN(CCCCl)C(=O)C2 |
| 137 to 138 | CCOC(=O)Nc1ccn2cc(C)nc2c1Br |
| 132 to 135 | O=CC1c2ccccc2C(C=O)c2ccccc21 (stereo not drawn) |
| 107 to 110 | CCN(CC)CCCNC(=O)C1=C(O)c2ccccc2S(=O)(=O)N1C |
| 190 to 193 | CCOC(=O)C(C#N)=CNc1csc(-c2ccccc2)c1 |
| 36 to 37 | CCC(C)Nc1c(N)cc(C)c(C)c1[N+](=O)[O-] (stereo not drawn) |
| 78 | O=C(c1ccccc1O)c1ccccc1Br |
| 163 to 166 | COc1ccc(C(=O)C(=O)c2cccc(-c3ccc(S(C)(=O)=O)cc3)c2-c2ccccc2)cc1Cl |
| 119 to 120 | O=C(OCc1ccc(Cl)cc1)C(=C1NCCCS1)[N+](=O)[O-] |
| 90 to 93 | CCCCn1c(=O)c2nn(S(=O)(=O)Cc3ccccc3)cc2n(CCCC)c1=O |
| 144 to 146 | O=[N+]([O-])c1cc([N+](=O)[O-])c(Nc2cccc3c2OC(F)(F)O3)c(C(F)(F)F)c1 |
| 320 to 321 | COCCNS(=O)(=O)c1cc2[nH]c(=O)c(=O)[nH]c2cc1[N+](=O)[O-] |

The remaining lines, values behind:

| Structure (SMILES) | melting point [°C] |
| --- | --- |
| CCOC(=O)CCCNc1ccc2oc(-c3ccc4ccc(Cl)cc4n3)cc2c1 | 154 to 155 |
| O=C(Cn1ccnc1)c1ccc(Cl)cn1 | 122 to 129 |
| CCCCc1nc2cccc(CO)c2n1Cc1ccc(-c2ccccc2-c2nnn[nH]2)cc1 | 152 to 153 |
| COc1ccc(CN2Cc3c(C(N)=O)ncn3-c3ccc(Cl)cc3C2=O)c(OC)c1 | > 220 |
| C[C@H](Cn1ncnn1)n1nnc2cc3c(=O)n(C4CC4)nnc3cc2c1=O | 190 to 192 |
| CC(C)(CC(O)(Cn1ccc2c1CCCC2=O)C(F)(F)F)c1cc(-c2cncnc2)cc2c1OCC2 (stereo not drawn) | 213 to 214 |
| O=C(Nc1cccc(Oc2ccc3nc(NC(=O)C4CC4)cn3n2)c1)c1ccccc1 | 265 |
| CC(CCl)CCCC(C)C1CC=C2C3=C(CCC21C)C1(C)CCC(O)C(C)(C)C1CC3 (stereo not drawn) | 145 to 146 |
| O=C(c1ccc(F)cc1)C1CCN(CCN(C(=O)c2cccc([N+](=O)[O-])c2)c2ccc(F)cc2)CC1 | 97 to 113 |
| C=CCSC1=C(O)CC(C)(C)CC1=O | 67.5 to 69.5 |
| COc1ccc2c(c1)CCC1CCNC(=O)C(CC(C)NC(C)C)=C21 (stereo not drawn) | 118 to 126 |
| CC(C)(C)OC(=O)Nc1cc(OCc2ccccc2)c2ncccc2c1 | 180 to 181 |
| COc1cc(Nc2c(C#N)cnc3ccc(-c4csc(CN5CCOCC5)c4)cc23)c(Cl)cc1Cl | 145 to 147 |
| Cc1nc2cnccc2n1-c1ccc(Cn2c(=O)sc3ccccc32)cc1 | 198 to 201 |
| N#CC(C(=O)Nc1ccc(Cl)cc1)C(=O)c1ccc[nH]1 (stereo not drawn) | 219 to 221 |
| O=C(Nc1cccc2c(-n3c(-c4cccnc4)nc4ccccc43)ccnc12)c1c(Cl)cccc1Cl | 203 to 204 |
| N#Cc1cnc2cc(-c3cncc(CN4CCOCC4)c3)ccc2c1Nc1ccc(Oc2ccccc2)cc1 | 185 to 187 |
| Cc1ccc(-c2c3ccccc3nn2Cc2ccccc2)cc1 | 111 |
| Oc1cc(C(F)(F)F)nc(C(F)(F)F)c1 | 123 to 130 |
| O=S(=O)(NCc1ccnc2ccccc12)c1ccc(Cc2ccccc2)cc1 | 106 to 107 |
| O=C1OCc2c1cc1ccc3c(c1c2-c1ccc(F)cc1)OCO3 | 215 to 218 |
| CC(C)CC1(C(CCN2C(=O)c3cc(Cl)c(Cl)cc3C2=O)C(=O)NO)CCN(CCc2ccccc2)C1=O (stereo not drawn) | 207 to 208 |
| CNC(=NC#N)Nc1ccc(Cl)nc1 | 227 to 228 |
